Data: PubChem BioAssay AID256 (DTP/NCI, 2004)
Where “and” joins values, the source holds several entries; their conditions need not be identical. Equal entries are not always repeated. Toxic doses and inconclusive results are not listed. How the source made its calls: active means survival T/C of 150% or more; inactive means T/C below 125% in these data.

Test system: CD2F1 mice, L1210 leukemia ip, survival T/C
Assay: NCI In Vivo Anticancer Drug Screen. Data for tumor model L1210 Leukemia (intraperitoneal) in CD2F1 (CDF1) mice
Settings: endpoint: mean survival time, higher = longer survival
Procedure, shortened: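 Mice carrying a transplanted tumor received test compound or vehicle alone. The value is the measurement in the treated group divided by that in the vehicle-treated control group.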

[1] = dose: 100.0 mg/kg/injection, schedule: Q04DX002 (ip), vehicle: saline with Tween-80
[2] = dose: 200.0 mg/kg/injection, schedule: Q04DX002 (ip), vehicle: saline with Tween-80
[3] = dose: 400.0 mg/kg/injection, schedule: Q04DX002 (ip), vehicle: saline with Tween-80
[4] = dose: 100.0 mg/kg/injection, schedule: Q04DX003 (ip), vehicle: saline with Tween-80
[5] = dose: 200.0 mg/kg/injection, schedule: Q04DX003 (ip), vehicle: saline with Tween-80
[6] = dose: 100.0 mg/kg/injection, schedule: Q01DX009 (ip), vehicle: saline with Tween-80
[7] = dose: 200.0 mg/kg/injection, schedule: Q01DX009 (ip), vehicle: saline with Tween-80
[8] = dose: 100.0 mg/kg/injection, schedule: Q01DX001 (ip), vehicle: saline

Measured: T/C

O=C(O)c1ccc([As](=O)(O)O)cc1
inactive: dose: 6.25 mg/kg/injection, schedule: Q01DX009 (ip), vehicle: Klucel (hydroxypropylcellulose) (HPC) 102 % of control | dose: 12.5 mg/kg/injection, schedule: Q01DX009 (ip), vehicle: Klucel (hydroxypropylcellulose) (HPC) 98 % of control | dose: 25.0 mg/kg/injection, schedule: Q01DX009 (ip), vehicle: Klucel (hydroxypropylcellulose) (HPC) 87 % of control and 92 % of control

COC(=O)C1C(C(=O)OC)C2(C)C(=O)C1(C)C(c1ccccc1)=C2c1ccccc1 (stereo unspecified)
inactive: [1] 101 % of control | [2] 90 % of control | [3] 90 % of control

COc1cc(/C=N\NC(=O)CC#N)cc(OC)c1OC
inactive: [4] 94 % of control | [5] 98 % of control

O=C(O)C1CCc2c(cnn2-c2ccc(Cl)cc2)C1 (stereo unspecified)
inactive: [1] 96 % of control | [2] 103 % of control | [3] 103 % of control

CCCCCC[C@@H](O)[C@@H]1C2=C(C[C@H]([C@H](O)[C@@H]3CC=CC(=O)O3)CC3=C(C(=O)OC3=O)[C@@H]1O)C(=O)OC2=O
inactive: dose: 0.13 mg/kg/injection, schedule: Q01DX001 (ip), vehicle: saline 97 % of control | dose: 0.25 mg/kg/injection, schedule: Q01DX001 (ip), vehicle: saline 95 % of control | dose: 0.5 mg/kg/injection, schedule: Q01DX001 (ip), vehicle: saline 96 % of control | dose: 1.0 mg/kg/injection, schedule: Q01DX001 (ip), vehicle: saline 96 % of control | dose: 2.0 mg/kg/injection, schedule: Q01DX001 (ip), vehicle: saline 96 % of control

Cc1ccc(S(=O)(=O)CCCCl)cc1
inactive: dose: 50.0 mg/kg/injection, schedule: Q01DX009 (ip), vehicle: Klucel (hydroxypropylcellulose) (HPC) 111 % of control | dose: 100.0 mg/kg/injection, schedule: Q01DX009 (ip), vehicle: Klucel (hydroxypropylcellulose) (HPC) 95 % of control | dose: 200.0 mg/kg/injection, schedule: Q01DX009 (ip), vehicle: Klucel (hydroxypropylcellulose) (HPC) 100 % of control

Cn1cnc2c(SCc3ccccc3)ncnc21
inactive: [4] 104 % of control | dose: 132.0 mg/kg/injection, schedule: Q04DX003 (ip), vehicle: saline with Tween-80 118 % of control | [5] 102 % of control | dose: 300.0 mg/kg/injection, schedule: Q04DX003 (ip), vehicle: saline with Tween-80 119 % of control

O=C(O)CCN(Cl)Cl
inactive: dose: 1.56 mg/kg/injection, schedule: Q01DX009 (ip), vehicle: saline 97 % of control | dose: 3.13 mg/kg/injection, schedule: Q01DX009 (ip), vehicle: saline 102 % of control | dose: 6.25 mg/kg/injection, schedule: Q01DX009 (ip), vehicle: saline 100 % of control

Oc1cc2c(cc1O)-c1[nH]ncc1CC2
inactive: [1] 115 % of control | [2] 103 % of control | [3] 98 % of control

CSC(=S)N(C)/N=C/c1ccccn1
inactive: [6] 98 % of control | [7] 96 % of control

CC1NC(C(=O)O)Cc2cc(O)c(O)cc21 (stereo unspecified)
inactive: [4] 102 % of control | [5] 98 % of control | dose: 400.0 mg/kg/injection, schedule: Q04DX003 (ip), vehicle: saline with Tween-80 100 % of control

O/N=C\c1cc[n+](CC[n+]2ccc(/C=N/O)cc2)cc1
inactive: dose: 25.0 mg/kg/injection, schedule: Q04DX002 (ip), vehicle: other 97 % of control | dose: 50.0 mg/kg/injection, schedule: Q04DX002 (ip), vehicle: other 94 % of control | dose: 100.0 mg/kg/injection, schedule: Q04DX002 (ip), vehicle: other 108 % of control

S=C1SCCCS1
inactive: dose: 75.0 mg/kg/injection, schedule: Q04DX003 (ip), vehicle: Klucel (hydroxypropylcellulose) (HPC) 103 % of control | dose: 150.0 mg/kg/injection, schedule: Q04DX003 (ip), vehicle: Klucel (hydroxypropylcellulose) (HPC) 98 % of control | dose: 300.0 mg/kg/injection, schedule: Q04DX003 (ip), vehicle: Klucel (hydroxypropylcellulose) (HPC) 98 % of control

COc1cc(OC)c(NC(=O)Nc2cccc(C(=O)O)c2)cc1Cl
inactive: dose: 50.0 mg/kg/injection, schedule: Q01DX009 (ip), vehicle: saline with Tween-80 88 % of control | [6] 88 % of control | [7] 92 % of control

CN1NC=Nc2c1[nH]cnc2=S
inactive: dose: 75.0 mg/kg/injection, schedule: Q01DX001 (ip), vehicle: other 89 % of control | dose: 150.0 mg/kg/injection, schedule: Q01DX001 (ip), vehicle: other 96 % of control

ClCc1ccc(CCl)c(Cl)c1Cl
inactive: [4] 96 % of control

CN(CCCOS(C)(=O)=O)CCCN(C)CCCOS(C)(=O)=O
inactive: dose: 10.0 mg/kg/injection, schedule: Q01DX001 (ip), vehicle: saline 115 % of control | dose: 20.0 mg/kg/injection, schedule: Q01DX001 (ip), vehicle: saline 107 % of control | dose: 40.0 mg/kg/injection, schedule: Q01DX001 (ip), vehicle: saline 115 % of control | dose: 60.0 mg/kg/injection, schedule: Q01DX001 (ip), vehicle: saline 124 % of control | dose: 80.0 mg/kg/injection, schedule: Q01DX001 (ip), vehicle: saline 115 % of control | [8] 117 % of control

CC(=O)O.[Th]
inactive: [8] 92 % of control | dose: 400.0 mg/kg/injection, schedule: Q01DX001 (ip), vehicle: saline 92 % of control

NNc1nnc(Cl)cc1N
inactive: [4] 109 % of control

Nc1ncnc2c1c1c(=O)[nH]c(=S)[nH]c1n2C1OC(CO)C(O)C1O (stereo unspecified)
inactive: dose: 25.0 mg/kg/injection, schedule: Q01DX005 (ip), vehicle: water 94 % of control | dose: 50.0 mg/kg/injection, schedule: Q01DX005 (ip), vehicle: water 100 % of control | dose: 100.0 mg/kg/injection, schedule: Q01DX005 (ip), vehicle: water 103 % of control | dose: 200.0 mg/kg/injection, schedule: Q01DX005 (ip), vehicle: water 105 % of control | dose: 400.0 mg/kg/injection, schedule: Q01DX005 (ip), vehicle: water 114 % of control

OC(Cc1ccc2ccccc2n1)C(Cl)(Cl)Cl (stereo unspecified)
inactive: dose: 100.0 mg/kg/injection, schedule: Q04DX003 (ip), vehicle: alcohol 95 % of control | dose: 200.0 mg/kg/injection, schedule: Q04DX003 (ip), vehicle: alcohol 95 % of control | dose: 400.0 mg/kg/injection, schedule: Q04DX003 (ip), vehicle: alcohol 101 % of control

CC12CCC(OC3CCCCO3)CC1=CCC1C2CCC2(C)C1CCC2(O)CCN (stereo unspecified)
inactive: dose: 6.25 mg/kg/injection, schedule: Q01DX005 (ip), vehicle: other 100 % of control | dose: 12.5 mg/kg/injection, schedule: Q01DX005 (ip), vehicle: other 97 % of control | dose: 15.6 mg/kg/injection, schedule: Q01DX001 (ip), vehicle: Klucel (hydroxypropylcellulose) (HPC) 104 % of control | dose: 31.2 mg/kg/injection, schedule: Q01DX001 (ip), vehicle: Klucel (hydroxypropylcellulose) (HPC) 96 % of control | dose: 62.5 mg/kg/injection, schedule: Q01DX001 (ip), vehicle: Klucel (hydroxypropylcellulose) (HPC) 98 % of control

CCOC(=O)Cc1c(C)[nH]c2c(Br)cc(C)c(C)c12
inactive: dose: 100.0 mg/kg/injection, schedule: Q01DX001 (ip), vehicle: other 98 % of control | dose: 200.0 mg/kg/injection, schedule: Q01DX001 (ip), vehicle: other 89 % of control | dose: 400.0 mg/kg/injection, schedule: Q01DX001 (ip), vehicle: other 110 % of control

O=[N+]([O-])c1ccc(C2=CSc3ccccc3N2)cc1
inactive: [1] 104 % of control | [2] 108 % of control | [3] 104 % of control

C1CC2CNC1CN2
inactive: dose: 100.0 mg/kg/injection, schedule: Q04DX003 (ip), vehicle: saline 96 % of control | dose: 200.0 mg/kg/injection, schedule: Q04DX003 (ip), vehicle: saline 98 % of control | dose: 400.0 mg/kg/injection, schedule: Q04DX003 (ip), vehicle: saline 94 % of control

COc1ccc(CCNCCc2ccc(OC)c(OC)c2)cc1OC
inactive: dose: 12.5 mg/kg/injection, schedule: Q01DX009 (ip), vehicle: water 95 % of control | dose: 25.0 mg/kg/injection, schedule: Q01DX009 (ip), vehicle: water 100 % of control | dose: 50.0 mg/kg/injection, schedule: Q01DX009 (ip), vehicle: water 102 % of control | dose: 100.0 mg/kg/injection, schedule: Q01DX009 (ip), vehicle: water 104 % of control

Cc1c(Cl)c(Cl)c(Cl)c(I)c1Cl
inactive: dose: 50.0 mg/kg/injection, schedule: Q04DX002 (ip), vehicle: saline with Tween-80 96 % of control | dose: 100.0 mg/kg/injection, schedule: Q01DX001 (ip), vehicle: saline with Tween-80 97 % of control | [1] 93 % of control | dose: 200.0 mg/kg/injection, schedule: Q01DX001 (ip), vehicle: saline with Tween-80 102 % of control | [2] 93 % of control | dose: 400.0 mg/kg/injection, schedule: Q01DX001 (ip), vehicle: saline with Tween-80 97 % of control

CCOP(=O)(OCC)C(C)c1ccccc1 (stereo unspecified)
inactive: [6] 100 % of control | [7] 94 % of control

CCOC(=O)Nc1cc(F)c(F)cc1F
inactive: [6] 98 % of control | [7] 98 % of control
